What was measured:
[1] = system: adult Japanese patients with SBS-IF; experiment: Plasma citrulline, biomarker of intestinal epithelial mass, change from baseline; assay type: in vivo, human
Method: Concentrations of plasma citrulline, a biomarker of intestinal epithelial mass, were measured at baseline; weeks 4, 8, 16, and 24; and then every 2 months thereafter up to 30 months of treatment. Patients who continued into SHP633-307 from SHP633-306 had measurements taken at month 12, while those continuing from TED-C14-004 had measurements taken every 3 months.
Efficacy endpoints were defined in an analogous manner to previous pivotal studies. These included a clinically meaningful reduction in weekly PS volume of ≥ 20% [17] measured between baseline and both 20 and 24 weeks for TED-C14-004 and SHP633-306, and a continued reduction in weekly PS volume of ≥ 20% from the baseline in core studies at each scheduled visit until the last visit before the interim data cut-off of SHP633-307. Other efficacy endpoints included changes in absolute and percentage weekly PS volumes from the baseline in the core studies at each study visit, the number of days per week of PS, the number of patients who achieved enteral autonomy at the end of treatment or the data cut-off, and the changes in plasma citrulline levels from baseline in the core studies. The primary efficacy data were derived from patient diaries and compared against investigator-prescribed data captured in electronic case report forms.

[2] = system: adult Japanese patients with SBS-IF; experiment: Urine output, change from baseline; assay type: in vivo, human; conditions: for 48 h urine output increase from baseline / 48 h urine output percent increase from baseline: 24 weeks
Method: As in the previous STEPS-1 study, patients participating in the core studies (TED-C14-004 and SHP633-306) underwent an optimization (2–8 weeks) and stabilization (4–8 weeks) period before initiation of treatment with teduglutide, during which PS was adjusted with the goal of achieving a stable target urine output of 1.0–2.0 L/day. All participating patients received teduglutide 0.05 mg/kg SC once daily throughout these three studies. PS was adjusted according to an algorithm based on the change from baseline in urine output and other assessments of fluid balance and nutrition status; the PS adjustment algorithm required reductions in PS if the urine output rose more than 10% above baseline. Patients had study visits at weeks 2 and 4, after which visits were held monthly during TED-C14-004 and SHP633-306. During SHP633-307, patients from SHP633-306 had monthly study visits throughout the 24 total months of treatment and then at 3-month intervals thereafter, and patients from TED-C14-004 had visits at 3-month intervals. The end-of-study assessments for SHP633-306 and TED-C14-004 were combined with the first visit of SHP633-307. SHP633-307 is ending soon with the approval of teduglutide in Japan.

[3] = 24 weeks, SHP633-306, n = 6, mean ± SD
[4] = 24 weeks, TED-C14-004, n = 9, mean ± SD
[5] = 30 months, TED-C14-004, n = 7, mean ± SD
[6] = interim cut-off of the extension study, patients from SHP633-306, mean ± SD
[7] = interim data cut-off of SHP633-307, patients from TED-C14-004, up to 57 months, n = 7, mean ± SD
[8] = after 6 months, patients who advanced to SHP633-307 from SHP633-306, n = 4, mean ± SD
[9] = last visit before interim data cut-off of SHP633-307, patients from TED-C14-004, n = 7, mean ± SD

With `CC[C@H](C)[C@H](NC(=O)[C@H](Cc1ccccc1)NC(=O)[C@H](CC(=O)O)NC(=O)[C@H](CCCNC(=N)N)NC(=O)[C@H](C)NC(=O)[C@H](C)NC(=O)[C@H](CC(C)C)NC(=O)[C@H](CC(N)=O)NC(=O)[C@H](CC(=O)O)NC(=O)[C@H](CC(C)C)NC(=O)[C@@H](NC(=O)[C@@H](NC(=O)[C@H](CC(N)=O)NC(=O)[C@H](CCSC)NC(=O)[C@H](CCC(=O)O)NC(=O)[C@H](CC(=O)O)NC(=O)[C@H](CO)NC(=O)[C@H](Cc1ccccc1)NC(=O)[C@H](CO)NC(=O)CNC(=O)[C@H](CC(=O)O)NC(=O)CNC(=O)[C@@H](N)Cc1c[nH]cn1)[C@@H](C)O)[C@@H](C)CC)C(=O)N[C@@H](CC(N)=O)C(=O)N[C@@H](Cc1c[nH]c2ccccc12)C(=O)N[C@@H](CC(C)C)C(=O)N[C@H](C(=O)N[C@@H](CCC(N)=O)C(=O)N[C@H](C(=O)N[C@@H](CCCCN)C(=O)N[C@H](C(=O)N[C@H](C(=O)N[C@@H](CC(=O)O)C(=O)O)[C@@H](C)O)[C@@H](C)CC)[C@@H](C)O)[C@@H](C)CC` [teduglutide] the “Plasma citrulline increase from baseline” value [1, 3] was 14.3 ± 10.9 µM, the “Plasma citrulline percent increase from baseline” value [1, 3] was 106.3% ± 114.9% and the “Plasma citrulline increase from baseline” value [1, 4] was 15.0 ± 17.4 µM. The “Plasma citrulline percent increase from baseline” value [1, 4] was 86.9% ± 112.3%, the “Plasma citrulline increase from baseline” value [1, 5] was 28.3 ± 24.1 µM and the “Plasma citrulline percent increase from baseline” value [1, 5] was 135.0% ± 84.2%. The “Plasma citrulline increase from baseline” value [1, 6] was 13.0 ± 5.6 µM, the “Plasma citrulline percent increase from baseline” value [1, 6] was 79.1% ± 33.5% and the “Plasma citrulline increase from baseline” value [1, 7] was 19.2 ± 18.9 µM. For the same compound, the “Plasma citrulline percent increase from baseline” value [1, 7] was 103.6% ± 88.7%, the “48 h urine output increase from baseline” value ([2]; SHP633-306, n = 6, mean ± SD) was 212.5 ± 265.9 mL/day and the “48 h urine output percent increase from baseline” value ([2]; SHP633-306, n = 6, mean ± SD) was 18.0% ± 23.9%. For the same compound, the “48 h urine output increase from baseline” value ([2]; TED-C14-004, n = 9, mean ± SD) was 226.7 ± 555.1 mL/day, the “48 h urine output percent increase from baseline” value ([2]; TED-C14-004, n = 9, mean ± SD) was 9.3% ± 22.4% and the “Urine output increase from baseline” value [2, 5] was 306.0 ± 735.0 mL/day. For the same compound, the “Urine output percent increase from baseline” value [2, 5] was 11.2% ± 24.6%, the “Urine output increase from baseline” value [2, 8] was 345.0 ± 217.8 mL/day and the “Urine output percent increase from baseline” value [2, 8] was 29.0 ± 21.6%. The Mean urine output [2, 9] was 1388.2 ± 507.8 mL/day and the “Urine output percent change from baseline” value [2, 9] was −2.0% ± 35.3%.

— PMC9950205, “Efficacy, safety, and pharmacokinetics of teduglutide in adult Japanese patients with short bowel syndrome and intestinal failure: two phase III studies with an extension” (Surgery Today, 2022)
